Results taken from patent publication US20050282911A1, “Memantine for the prevention or reduction of suicidality and for treatment of major depression associated with suicidality” (priority 2003, published 2005).

Test system: patients with major depressive disorder (MDD)
Test: Open-label, flexible dose, 12-week study of memantine in major depressive disorder (MEM-MD-09): efficacy
Type: in vivo, human
Set-up: CGI-I mean score: scale not given here
Details: for CGI-I mean score / Mean Change from Baseline in CGI-S / Mean Change from Baseline in HAM-D / Mean Change from Baseline in MADRS: ITT Population; for Mean Change from Baseline in CGI-S: baseline 4.3; for Mean Change from Baseline in HAM-D: baseline 30.0; for Mean Change from Baseline in MADRS: baseline 31.9
From the text: The present study was a single-center, open-label, flexible dose, 12-week study designed to provide a preliminary assessment of the efficacy and safety of memantine in patients with major depressive disorder (MDD). In order to assess the efficacy of treatment on depressive symptomatology, the primary efficacy assessment was the Montgomery Depression Rating Scale (MADRS). Secondary efficacy assessments included the Hamilton Depression Rating Scale (HAM-D), the Clinical Global Impressions—Severity Scale (CGI-S), the Clinical Global Impressions—Improvement Scale (CGI-I), the Patient Global Evaluation (PGE), and the Quality of Life Scale (QOL).
Study Design. The study was designed as a single-center, open-label, flexible dose 12-week study. Memantine was to be administered at 20 mg/day (10 mg b.i.d.) (titrated over a 4 week period), and, if warranted, up-titrated to a maximum of 40 mg/day (20 mg b.i.d.) (titrated in increments of 10 mg/day after Week 4).
Entrance Criteria. Criteria for enrollment were as follows: (i) male or female outpatients between 18 and 80 years of age at screening; (ii) diagnosis of MDD consistent with DSM-IV; (iii) Montgomery Asberg Depression Rating Scale (MADRS) score of 22 or greater; and CGI severity score of 4 or greater. None of the patients had attempted suicide or were diagnosed as being at risk for committing suicide.
Endpoints. The primary endpoint was improvement according to Montgomery Asberg Depression Rating Scale (MADRS). Secondary endpoints were improvements according to the Hamilton Depression Rating Scale (HAM-D), the Clinical Global Impressions-Severity Scale (CGI-S), the Clinical Global Impressions-Improvement Scale (CGI-I), Patient Global Evaluation (PGE), and Quality of Life Scale (QOL).
MADRS. MADRS is either self-administered (MADRS-S) or interviewer administered evaluation of symptoms of depression in adults. MADRS evaluates ten areas of depressive symptomatology: apparent sadness, reported sadness, inner tension, reduced sleep, reduced appetite, concentration difficulties, lassitude, inability to feel, pessimistic thoughts, and suicidal thoughts. Each area is rated on a seven-point scale (0-6).
MADRS was administered to each of the study participants at baseline, and weeks 1, 2, 3, 4, 6, 8, 10 and 12.
HAM-D. HAM-D criteria were assessed at weeks 1, 2, 4, 8 and 12. HAM-D is a 24-item scale that evaluates depressed mood, vegetative and cognitive symptoms of depression, and comorbid anxiety symptoms. It provides ratings on current DSM-IV symptoms of depression, with the exceptions of hypersomnia, increased appetite, and concentration/indecision. There are several ways of analyzing HAM-D. According to one analysis, the first 17-items are rated on either a 5-point (0-4) or a 3-point (0-2) scale. In general, the 5-point scale items use a rating of 0=absent; 1=doubtful to mild; 2=mild to moderate; 3=moderate to severe; 4=very severe. A rating of 4 is usually reserved for extreme symptoms. The 3-point scale items used a rating of 0=absent; 1=probable or mild; 2=definite. The second analysis uses the same scale to rate the first 21 items, and the third analysis uses the scale to rate all 24 items. All three analyses were used in the present study and used statistically in the results.
Response to medication (i.e., memantine) was defined as a reduction in the HAM-D 24 score of 50%, while remission was defined as a reduction in the HAM-D total score to 7 or less.
DSM-IV. DSM-IV diagnostic criteria were determined at week 1 and again at the end of the study. […]

## CC12CC3CC(C)(C1)CC(N)(C3)C2.Cl [Memantine, 1-amino-3,5-dimethyladamantane hydrochloride]
12 week period
  HAM-D ECDEU combination (cognitive disturbance factor): improved
12 week period, with the exception of one patient
  shift in severity ranking (CGI-S): improved to “mildly depressed” or to “not depressed”
12 week treatment period
  HAM-D item 8, MADRS item 6 and DSM-IV criterion “h” (concentration, cognitive disturbance): improved
LOCF analyses, endpoint
  reduction in MADRS and HAM-D (17-, 21-, and 24-question versions) at endpoint: approximately 18 points
Week 1, LOCF
  CGI-I mean score: 2.7
  Mean Change from Baseline in CGI-S: −0.5
  Mean Change from Baseline in HAM-D: −6.1
  Mean Change from Baseline in MADRS: −7.9
Week 1, OC
  CGI-I mean score: 2.7
  Mean Change from Baseline in CGI-S: −0.7
  Mean Change from Baseline in HAM-D: −8.2
  Mean Change from Baseline in MADRS: −10.5
Week 2, LOCF
  CGI-I mean score: 2.8
  Mean Change from Baseline in CGI-S: −0.6
  Mean Change from Baseline in HAM-D: −11.8
  Mean Change from Baseline in MADRS: −12.1
Week 2, OC
  CGI-I mean score: 2.8
  Mean Change from Baseline in CGI-S: −0.6
  Mean Change from Baseline in HAM-D: −11.8
  Mean Change from Baseline in MADRS: −12.1
Week 3, LOCF
  CGI-I mean score: 2.4
  Mean Change from Baseline in CGI-S: −0.9
  Mean Change from Baseline in MADRS: −14.3
Week 3, OC
  CGI-I mean score: 2.3
  Mean Change from Baseline in CGI-S: −1.0
  Mean Change from Baseline in MADRS: −14.7
Week 4, LOCF
  CGI-I mean score: 2.3
  Mean Change from Baseline in CGI-S: −1.3
  Mean Change from Baseline in HAM-D: −16.8
  Mean Change from Baseline in MADRS: −15.6
Week 4, OC
  CGI-I mean score: 2.1
  Mean Change from Baseline in CGI-S: −1.4
  Mean Change from Baseline in HAM-D: −20.8
  Mean Change from Baseline in MADRS: −17.0
Week 6, LOCF
  CGI-I mean score: 2.4
  Mean Change from Baseline in CGI-S: −1.3
  Mean Change from Baseline in MADRS: −15.0
Week 6, OC
  CGI-I mean score: 2.4
  Mean Change from Baseline in CGI-S: −1.3
  Mean Change from Baseline in MADRS: −15.0
Week 8, LOCF
  CGI-I mean score: 2.0
  Mean Change from Baseline in CGI-S: −1.5
  Mean Change from Baseline in HAM-D: −16.8
  Mean Change from Baseline in MADRS: −18.6
Week 8, OC
  CGI-I mean score: 1.9
  Mean Change from Baseline in CGI-S: −1.6
  Mean Change from Baseline in HAM-D: −19.0
  Mean Change from Baseline in MADRS: −20.4
Week 10, LOCF
  CGI-I mean score: 2.1
  Mean Change from Baseline in CGI-S: −1.8
  Mean Change from Baseline in MADRS: −18.5
Week 10, OC
  CGI-I mean score: 2.3
  Mean Change from Baseline in CGI-S: −1.6
  Mean Change from Baseline in MADRS: −16.7
Week 12, LOCF
  CGI-I mean score: 2.1
  Mean Change from Baseline in CGI-S: −1.5
  Mean Change from Baseline in HAM-D: −17.8
  Mean Change from Baseline in MADRS: −18.5
Week 12, OC
  CGI-I mean score: 2.3
  Mean Change from Baseline in CGI-S: −1.3
  Mean Change from Baseline in HAM-D: −16.0
  Mean Change from Baseline in MADRS: −16.7
After 12 weeks
  overall impression of improvement (CGI-I): overall impression of improvement as measured using CGI-I in all patients with the exception of one
All DSM-IV categories, end of study
  DSM-IV checklist: degree of symptomology: reduction in the degree of symptomology in all DSM-IV categories
Baseline to Week 12, LOCF and OC approaches
  improvement on the primary and all secondary efficacy variables: Significant improvement
Eight patients with MDD, first assessment
  onset of therapeutic benefit in the treatment of MDD: 1 week
End of Week 8
  patients considered “Very Much Improved” or “Much Improved” as measured by the CGI-I: 6 of 7
End of Week 8, responder defined as 50% improvement from baseline
  patients responded to treatment, as measured by the MADRS and the HAM-D: 5 of the 7
End of study
  DSM-IV checklist: categories of appetite and agitation/retardation: complete remission of symptoms in all patients
Memantine 20-40 mg/day, comparison with prior study SCT-MD-01
  overall therapeutic response compared to citalopram and escitalopram: larger magnitude and faster onset of overall therapeutic response
Overall scores versus baseline
  appetite items HAM-D 12, MADRS item 5 and DSM-IV item “c”: decrease from baseline
Specific items chosen for analysis
  HAM-D items 1, 2, 3 and 7: positive change
Throughout visit 8
  score of item 3 of HAM-D (suicide): steady improvement
Week 12
  patients meeting criteria as CGI-I responders: 62.5%
Week 12, printed without sign
  mean change from baseline to endpoint on the HAM-D: about 17.8
  mean change from baseline to endpoint on the MADRS: about 18.5
Week 12 from baseline
  HAM-D item combinations for melancholy, anxiety, psychomotor retardation and insomnia: improvement
